Biological target: human PDE10A2 (Homo sapiens (Human), UniProt Q9Y233)
Experiment: PDE10 fluorescence polarization (IMAP FP) inhibition assay
Type: biochemical
Settings: read-out: PDE10A Ki
Experimental: The activity of the compounds in accordance with the present invention as PDE10 inhibitors may be readily determined without undue experimentation using a fluorescence polarization (FP) methodology that is well known in the art (Huang, W., et al., J. Biomol Screen, 2002, 7: 215).
In a typical experiment the PDE10 inhibitory activity of the compounds of the present invention was determined in accordance with the following experimental method. PDE10A2 was amplified from human fetal brain cDNA (Clontech, Mountain View, Calif.) using a forward primer corresponding to nucleotides 56-77 of human PDE10A2 (Accession No. AF127480, Genbank Identifier 4894716), containing a Kozak consensus sequence, and a reverse primer corresponding to nucleotides 2406-2413 of human PDE10A2 (Accession No. AF127480, Genbank Identifier 4894716). Amplification with Easy-A polymerase (Stratagene, La Jolla, Calif.) was 95° C. for 2 minutes followed by thirty three cycles of 95° C. for 40 seconds, 55° C. for 30 seconds, and 72° C. for 2 minutes 48 seconds. Final extension was 72° C. for 7 minutes. The PCR product was TA cloned into pcDNA3.2-TOPO (Invitrogen, Carlsbad, Calif.) according to standard protocol. AD293 cells with 70-80% confluency were transiently transfected with human PDE10A2/pcDNA3.2-TOPO using Lipofectamine 2000 according to manufacturer specifications (Invitrogen, Carlsbad, Calif.). Cells were harvested 48 hours post-transfection and lysed by sonication (setting 3, 10×5 sec pulses) in a buffer containing 20 mM HEPES, 1 mM EDTA and protease inhibitor cocktail (Roche). Lysate was collected by centrifugation at 75,000×g for 20 minutes. Supernatant containing the cytoplasmic fraction was used for evaluation of PDE10A2 activity. The fluorescence polarization assay for cyclic nucleotide phosphodiesterases was performed using an IMAP® FP kit supplied by Molecular Devices, Sunnyvale, Calif. (product # R8139). IMAP® technology has been applied previously to phosphodiesterase assays (Huang, W., et al., J. Biomol Screen, 2002, 7: 215). Assays were performed at room temperature in 384-well microtiter plates with an incubation volume of 20.2 μL. Solutions of test compounds were prepared in DMSO and serially diluted with DMSO to yield 8 μL of each of 10 solutions differing by 3-fold in concentration, at 32 serial dilutions per plate. 100% inhibition is determined using a known PDE10 inhibitor, which can be any compound that is present at 5,000 times its Ki value in the assay described as follows, such as papaverine (see Siuciak, et al. Neuropharmacology (2006) 51:386-396; Becker, et al. Behav Brain Res (2008) 186(2):155-60; Threlfell, et al., J Pharmacol Exp Ther (2009) 328(3):785-795), 2-{4-[pyridin-4-yl-1-(2,2,2-trifluoroethyl)-1H-pyrazol-3-yl]phenoxymethyl}quinoline succinic acid or 2-[4-(1-methyl-4-pyridin-4-yl-1H-pyrazol-3-yl)-phenoxymethyl]quinoline succinic acid (see Schmidt, et al. J Pharmacol Exp Ther (2008) 325:681-690; Threlfell, et al., J Pharmacol Exp Ther (2009) 328(3): 785-795). 0% of inhibition is determined by using DMSO (1% final concentrations).
A Labcyte Echo 555 (Labcyte, Sunnyvale, Calif.) is used to dispense 200 nL from each well of the titration plate to the 384 well assay plate. A solution of enzyme (1/1600 dilution from aliquots; sufficient to produce 20% substrate conversion) and a separate solution of FAM-labeled cAMP PDE from Molecular Devices (product # R7506), at a final concentration of 50 nM are made in the assay buffer (10 mM Tris HCl, pH 7.2, 10 mM MgCl2, 0.05% NaN3 0.01% Tween-20, and 1 mM DTT). The enzyme and the substrate are then added to the assay plates in two consecutive additions of 10 μL, and then shaken to mix. The reaction is allowed to proceed at room temperature for 30 minutes. A binding solution is then made from the kit components, comprised of 80% Solution A, 20% Solution B and binding reagent at a volume of 1/600 the total binding solution.

Sequence of human PDE10A2 (Q9Y233 267-1055): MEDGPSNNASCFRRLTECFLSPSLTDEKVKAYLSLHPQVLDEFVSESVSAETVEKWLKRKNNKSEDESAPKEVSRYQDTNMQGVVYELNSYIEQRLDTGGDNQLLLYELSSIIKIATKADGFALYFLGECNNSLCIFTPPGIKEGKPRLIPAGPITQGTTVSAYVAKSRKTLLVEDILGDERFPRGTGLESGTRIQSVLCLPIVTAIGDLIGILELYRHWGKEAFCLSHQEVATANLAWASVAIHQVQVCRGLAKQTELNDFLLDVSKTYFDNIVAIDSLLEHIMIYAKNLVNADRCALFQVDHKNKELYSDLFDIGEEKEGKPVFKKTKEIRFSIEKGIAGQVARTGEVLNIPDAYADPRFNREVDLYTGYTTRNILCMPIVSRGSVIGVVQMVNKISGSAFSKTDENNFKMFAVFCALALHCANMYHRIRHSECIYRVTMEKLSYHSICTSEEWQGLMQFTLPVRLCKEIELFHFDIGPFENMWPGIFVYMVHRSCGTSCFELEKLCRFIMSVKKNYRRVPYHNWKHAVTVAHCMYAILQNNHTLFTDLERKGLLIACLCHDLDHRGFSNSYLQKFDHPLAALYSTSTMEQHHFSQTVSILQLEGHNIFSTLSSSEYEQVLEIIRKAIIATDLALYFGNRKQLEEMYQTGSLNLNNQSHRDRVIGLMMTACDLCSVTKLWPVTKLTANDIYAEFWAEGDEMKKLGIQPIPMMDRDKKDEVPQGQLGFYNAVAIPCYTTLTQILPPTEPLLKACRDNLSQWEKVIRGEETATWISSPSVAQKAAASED

SMILES | Ki [nM]
COc1cccnc1[C@H]1C[C@@H]1COc1cc(NCc2cnn(C)c2)nc(C)n1 (stereo in doubt) [Compound 2-14, 6-{[2-(3-methoxypyridin-2-yl)cyclopropyl]methoxy}-2-methyl-N-[(1-methyl-1H-pyrazol-4-yl)methyl]pyrimidin-4-amine] | 3.6
Cc1nc(NCc2cnn(C)c2)cc(OC[C@H]2C[C@@H]2c2ccc(C(F)F)cn2)n1 (stereo in doubt) [Compound 2-17, 6-({2-[5-(difluoromethyl)pyridin-2-yl]cyclopropyl}methoxy)-2-methyl-N-[(1-methyl-1H-pyrazol-4-yl)methyl]pyrimidin-4-amine] | 3.5
Cc1nc(NCc2cnn(C)c2)cc(OCC2CC2c2ccccn2)n1 (stereo not shown) [Compound 1-2, 2-methyl-N-[(1-methyl-1H-pyrazol-4-yl)methyl]-6-[(2-pyridin-2-ylcyclopropyl)methoxy]pyrimidin-4-amine] | 0.03
Cc1cc(CNc2cc(OC[C@H]3C[C@@H]3c3ccc4ccccc4n3)nc(C)n2)n(C)n1 [Compound 2-4, S,S-N-[(1,3-dimethyl-1H-pyrazol-5-yl)methyl]-2-methyl-6-[(2-quinolin-2-ylcyclopropyl)methoxy] pyrimidin-4-amine] | 0.6
Cc1nc(NCc2nnc(C)s2)cc(OC[C@H]2C[C@@H]2c2ccc3ncccc3n2)n1 [Compound 2-27, S,S-2-methyl-N-[(5-methyl-1,3,4-thiadiazol-2-yl)methyl]-6-{[2-(1,5-naphthyridin-2-yl)cyclopropyl]methoxy} pyrimidin-4-amine] | 0.02
Cc1nc(NCc2nnc(C3CC3)s2)cc(OC[C@H]2C[C@@H]2c2ccccn2)n1 [Compound 2-37, S,S-N-[(5-cyclopropyl-1,3,4-thiadiazol-2-yl)methyl]-2-methyl-6-[(2-pyridin-2-ylcyclopropyl)methoxy] pyrimidin-4-amine] | 3.8
Cc1nc(NCc2sc(C)nc2C)c(C)c(OC[C@H]2C[C@@H]2c2ccccn2)n1 [Compound 2-47, S,S-N-[(2,4-dimethyl-1,3-thiazol-5-yl)methyl]-2,5-dimethyl-6-[(2-pyridin-2-ylcyclopropyl)methoxy] pyrimidin-4-amine] | 41.7
COc1ccc([C@H]2C[C@@H]2COc2cc(NCc3nnc(C)s3)nc(N)n2)nc1 [Compound 2-53, S,S-6-{[(1S,2S)-2-(5-methoxypyridin-2-yl)cyclopropyl]methoxy}-N-4-[(5-methyl-1,3,4-thiadiazol-2-yl)methyl]pyrimidine-2,4-diamine] | 0.05
Cc1ccc([C@H]2C[C@@H]2COc2nc(C)nc(NCc3nnc(C)s3)c2Cl)nc1 [Compound 2-58, S,S-5-chloro-2-methyl-6-{[(1S,2S)-2-(5-methylpyridin-2-yl)cyclopropyl]methoxy}-N-[(5-methyl-1,3,4-thiadiazol-2-yl)methyl]pyrimidin-4-amine] | 3.9

Other lines, results leading:

Ki [nM] | SMILES
1 | Cc1nc(NCc2nnc(C)s2)cc(OC[C@H]2C[C@@H]2c2ccc(-c3cccnc3)cn2)n1 (stereo in doubt) [Compound 8-8, 6-{[2-(3,3′-bipyridin-6-yl)cyclopropyl]methoxy}-2-methyl-N-[(5-methyl-1,3,4-thiadiazol-2-yl)methyl] pyrimidin-4-amine]
0.08 | Cc1nc(NCc2nnc(C)s2)cc(OC[C@H]2C[C@@H]2c2ccc(C3CC3)cn2)n1 (stereo in doubt) [Compound 9-2, 6-{[2-(5-cyclopropylpyridin-2-yl)cyclopropyl]methoxy}-2-methyl-N-[(5-methyl-1,3,4-thiadiazol-2-yl)methyl]pyrimidin-4-amine]
1.1 | Cc1nnc(CNc2cc(OC[C@H]3C[C@@H]3c3ccccn3)nc(CF)n2)s1 [Compound 3-8, S,S-2-(fluoromethyl)-N-[(5-methyl-1,3,4-thiadiazol-2-yl)methyl]-6-[(2-pyridin-2-ylcyclopropyl)methoxy] pyrimidin-4-amine]
1.6 | Cc1nc(C)c(CNc2cc(OC[C@H]3C[C@@H]3c3ccccn3)nc(C3CC3)n2)s1 [Compound 3-11, S,S-2-cyclopropyl-N-[(2,4-dimethyl-1,3-thiazol-5-yl)methyl]-6-[(2-pyridin-2-ylcyclopropyl)methoxy] pyrimidin-4-amine]
0.5 | COc1ccc([C@H]2C[C@@H]2COc2nc(N)nc(NCc3nnc(C)s3)c2F)nc1 [Compound 3-13, 5-fluoro-6-{[(1S,2S)-2-(5-methoxypyridin-2-yl)cyclopropyl]methoxy}-N-4-[(5-methyl-1,3,4-thiadiazol-2-yl)methyl]pyrimidine-2,4-diamine]
3.6 | Cc1nnc(CNc2nc(N)nc(OC[C@H]3C[C@@H]3c3ccc(Cl)cn3)c2F)s1 [Compound 3-19, 6-{[(1S,2S)-2-(5-chloropyridin-2-yl)cyclopropyl]methoxy}-5-fluoro-N-4-[(5-methyl-1,3,4-thiadiazol-2-yl)methyl]pyrimidine-2,4-diamine]
0.09 | Cc1nnc(CNc2nc(N)nc(OC[C@H]3C[C@@H]3c3ccc4c(n3)CCC4)c2F)s1 [Compound 3-25, S,S-6-(((1S,2S)-2-(6,7-dihydro-5H-cyclopenta[b]pyridin-2-yl)cyclopropyl)methoxy)-5-fluoro-N4-((5-methyl-1,3,4-thiadiazol-2-yl)methyl)pyrimidine-2,4-diamine]
1.1 | Cc1nc(NCc2cc(C)on2)cc(OCC2CC2c2ccccn2)n1 (stereo not shown) [Compound 12-2, 2-methyl-N-((5-methylisoxazol-3-yl)methyl)-6-((2-(pyridin-2-yl)cyclopropyl)methoxy)-pyrimidin-4-amine]
5.3 | Cc1nc(NCc2ccncc2C)cc(OCC2CC2c2ccccn2)n1 (stereo not shown) [Compound 14-3, 2-methyl-N-((3-methylpyridin-4-yl)methyl)-6-((2-(pyridin-2-yl)cyclopropyl)methoxy)pyrimidin-4-amine]
1.6 | Cc1ccc([C@H]2C[C@@H]2COc2nc(N)nc(NCc3nnc(C)s3)c2C#N)nc1 [Compound 16-4, 2-amino-4-{[(1S,2S)-2-(5-methylpyridin-2-yl)cyclopropyl]methoxy}-6-{[(5-methyl-1,3,4-thiadiazol-2-yl)methyl]amino}pyrimidine-5-carbonitrile]
